A short description of the data set: Pharmacokinetic assessment in healthy fed male volunteers after oral tablet administration, plasma quantified by MSPE-HPLC-UV. To be noted: human, in vivo, 25 mg. The method, then:
The chromatographic analysis was conducted using a Waters alliance e2695, (Massachusetts, USA) system which was equipped with a Waters 2487 dual wavelength detector and C18 TMS endcapping/reversed phase column (Luna 5 μm C18 100 A HPLC column 250 × 4.6 mm id, Phenomenex Co, Torrance, CA) at 40 °C. The mobile phase which being used in an isocratic mode was composed of potassium dihydrogen phosphate and sodium dodecyl sulfate (0.01 M, pH 6): acetonitrile (55 : 45, v/v) and passed through column with flow rate of 1 mL min^−1 (the mobile phase was filtered and degassed daily prior to use in HPLC). […] The column effluent was monitored at UV wavelength of 215 nm and the injection volume was 20.0 μL. The mobile phase was filtered by passing it through a 0.2 μm membrane filter (Millipore, Bedford, MA, USA).
Every frozen human plasma were firstly thawed at room temperature and placed into a sample glass tube. Preparation of plasma before MSPE method was based on protein precipitation with aid of acetonitrile. In this regard, the plasma (1.9 mL) was fortified with 100.0 μL of required concentrations of analytes followed by mixing with 2.0 mL ACN. The obtained solution was vortexed for 1 min and centrifuged for 5 min at 3500 rpm. Then, ACN content of the clear supernatant was evaporated under nitrogen stream and the remaining sample was transferred into 4.0 mL buffer solution at pH 4.0. Sample volume after evaporation under nitrogen stream was about 2 mL and total sample volume after transferring to 4 mL buffer solution was about 6 mL. 5.0 mL of the deproteinized samples containing target drugs were subjected to the extraction procedure for subsequent analysis.
Initially, 5.0 mL of the deproteinized human plasma (initial volume of spiked plasma sample 2.0 mL) was placed into a glass tube and 10.0 mg of magnetic Fe3O4@SiO2@PIL was added to the sample. The mixture was sonicated for 4 min to totally disperse the magnetic sorbent through the matrix and complete the extraction of target drugs at room temperature. Analyte-loaded sorbent was collected from the sample solution by exposing the glass tube to a powerful neodymium–iron–boron (Nd–Fe–B) magnet (5 × 5 × 4 cm, 0.8 tesla), and the upper phase was poured out. Later, the adsorbed analytes were eluted by 1.0 mL of acetonitrile (0.5 mL every time and washed two times) to desorb the analytes. Elution process was completed during 2 min in the ultrasonic bath. The magnet was used again to separate the sorbent and then the total volume of eluted solution was collected and evaporated to dryness under stream of the nitrogen. The dry residue was re-dissolved in 100.0 μL of mobile phase and stirred for 1 min. Finally, 20.0 μL of this solution was injected into the HPLC-UV system for analysis.
Eight healthy fed male volunteers within the age range of 28–42 years old were enrolled in these studies. […] The plasma samples were immediately transferred into a clean polypropylene tube and stored at −18 °C until being used. All assessments were approved by “The Committee For Research Ethics” of Department of Pharmacy and Pharmaceutical Sciences Research Center, Tehran University of Medical Sciences. In the next experiments, a single oral dose administration of Jardiance tablet (25 mg EMPA) was performed to four volunteers and the blood samples were collected and treated as the previous experiments. Each real sample was extracted at optimal conditions by the proposed procedure and the mean plasma concentration–time curve was obtained.

Molecules are shown by their SMILES.

A word on the AUC(0-inf): it is the area under the concentration-time curve extrapolated to infinity. Low readings indicate low exposure, high ones high exposure. The AUC(0-t) is exposure summed from dosing to a finite time, without extrapolation to infinity. Higher therefore signals high exposure. Broadly, the Cmax is the peak of the concentration-time curve. The term Tmax denotes the time from dosing to the highest level. By half-life is commonly meant how long it takes for the measured level to halve. Read a high half-life as slow decline. As to `OC[C@H]1O[C@@H](c2ccc(Cl)c(Cc3ccc(O[C@H]4CCOC4)cc3)c2)[C@H](O)[C@@H](O)[C@@H]1O` [EMPA, empagliflozin], the AUC(0-inf) was determined as 1430 ± 151 ng·h/mL, the AUC(0-t) was determined as 1400 ± 122 ng·h/mL, the peak level (Cmax) was 216 ± 44.1 ng/mL and the Tmax is 2.9 ± 0.3 h. The half-life is 7.2 ± 1.1 h.

Source of the values: article PMC9085437, “Silica-coated magnetic iron oxide functionalized with hydrophobic polymeric ionic liquid: a promising nanoscale sorbent for simultaneous extraction of antidiabetic drugs from human plasma prior to their quantitation by HPLC” (RSC Advances, 2018).
